Source: US8394772B2, “Glycoside derivative and uses thereof” (Novartis AG, priority 2009, dated 2013)

Experiments:
[1] = molecular target: T1, human sodium glucose cotransporter 2 (Homo sapiens, UniProt P31639); experiment: SGLT-2 assay: sodium-dependent 14C-AMG uptake in CHO-hSGLT2 or HEK-hSGLT2 cells; type: cell-based; conditions: n = 1-4, hSGLT2-transfected CHO-K1 or HEK293 cells, read-out: SGLT2 IC50 nM (n = 1-4)
T1 construct: expressed in transfected cells; host or cells: CHO-K1 (ATCC CCL-61) or HEK293 (ATCC CRL-1573), stably transfected with pZeoSV
T1 sequence (P31639 1-672): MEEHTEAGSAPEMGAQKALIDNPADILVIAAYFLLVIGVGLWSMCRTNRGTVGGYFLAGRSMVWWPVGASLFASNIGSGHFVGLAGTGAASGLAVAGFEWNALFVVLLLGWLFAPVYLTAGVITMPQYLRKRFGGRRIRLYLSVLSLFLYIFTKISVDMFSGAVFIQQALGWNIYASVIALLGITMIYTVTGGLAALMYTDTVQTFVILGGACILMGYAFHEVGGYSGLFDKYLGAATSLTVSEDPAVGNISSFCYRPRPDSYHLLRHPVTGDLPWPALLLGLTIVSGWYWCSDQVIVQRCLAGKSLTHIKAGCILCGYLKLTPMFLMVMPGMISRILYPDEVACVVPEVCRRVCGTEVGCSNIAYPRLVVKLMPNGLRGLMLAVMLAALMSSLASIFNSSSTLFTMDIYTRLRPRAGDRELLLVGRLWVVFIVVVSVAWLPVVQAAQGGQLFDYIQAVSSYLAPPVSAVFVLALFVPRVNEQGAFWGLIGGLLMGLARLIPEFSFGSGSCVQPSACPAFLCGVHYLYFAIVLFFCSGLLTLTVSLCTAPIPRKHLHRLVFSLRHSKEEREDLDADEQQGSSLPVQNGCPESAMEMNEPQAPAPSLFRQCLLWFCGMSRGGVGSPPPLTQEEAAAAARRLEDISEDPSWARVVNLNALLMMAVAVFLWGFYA
Method: These cell lines transport 14 C-labeled alpha-methyl-glucopyranoside (14 C-AMG, Amersham) into the interior of the cell in sodium-dependent manner.
(§1) The SGLT-2 assay is carried out as follows: CHO-hSGLT2 cells are cultivated in Ham's F12 Medium (BioWhittaker) with 10% fetal calf serum and 250 μg/mL zeocin (Invitrogen), and HEK293-hSGLT2 cells are cultivated in DMEM medium with 10% fetal calf serum and 250 μg/mL zeocin (Invitrogen). The cells are detached from the culture flasks by washing twice with PBS and subsequently treating with trypsin/EDTA. After the addition of cell culture medium the cells are centrifuged, resuspended in culture medium and counted in a Casy cell counter. Then 40,000 cells per well are seeded into a white, 96-well plate coated with poly-D-lysine and incubated overnight at 37° C., 5% CO2. The cells are washed twice with 250 μl of assay buffer (Hanks Balanced Salt Solution, 137 mM NaCl, 5.4 mM KCl, 2.8 mM CaCl2, 1.2 mM MgSO4 and 10 mM HEPES (pH 7.4), 50 μg/mL of gentamycin). 250 μl of assay buffer and 5 μl of test compound are then added to each well and the plate is incubated for a further 15 minutes in the incubator. 5 μl of 10% DMSO are used as the negative control. The reaction is started by adding 5 μl of 14 C-AMG (0.05 μCi) to each well. After 2 hours' incubation at 37° C., 5% CO2, the cells are washed again with 250 μl of PBS ([…]) and then lysed by the addition of 25 μl of 0.1 N NaOH (5 min. at 37° C.). 200 μl of MicroScint20 (Packard) are added to each well and incubation is continued for a further 20 min at 37° C. After this incubation the radioactivity of the 14 C-AMG absorbed is measured in a Topcount (Packard) using a 14 C scintillation program.

human SGLT1 = molecular target: T2, human SGLT1 (Homo sapiens, UniProt P13866); experiment: Analogous SGLT1 selectivity test: hSGLT1 expressed in CHO-K1 or HEK293 cells; type: cell-based; conditions: n = 1-4; 14C-AMG uptake, hSGLT1-transfected CHO-K1 or HEK293 cells
T2 construct: expressed in transfected cells; host or cells: CHO-K1 or HEK293
T2 sequence (P13866 1-664): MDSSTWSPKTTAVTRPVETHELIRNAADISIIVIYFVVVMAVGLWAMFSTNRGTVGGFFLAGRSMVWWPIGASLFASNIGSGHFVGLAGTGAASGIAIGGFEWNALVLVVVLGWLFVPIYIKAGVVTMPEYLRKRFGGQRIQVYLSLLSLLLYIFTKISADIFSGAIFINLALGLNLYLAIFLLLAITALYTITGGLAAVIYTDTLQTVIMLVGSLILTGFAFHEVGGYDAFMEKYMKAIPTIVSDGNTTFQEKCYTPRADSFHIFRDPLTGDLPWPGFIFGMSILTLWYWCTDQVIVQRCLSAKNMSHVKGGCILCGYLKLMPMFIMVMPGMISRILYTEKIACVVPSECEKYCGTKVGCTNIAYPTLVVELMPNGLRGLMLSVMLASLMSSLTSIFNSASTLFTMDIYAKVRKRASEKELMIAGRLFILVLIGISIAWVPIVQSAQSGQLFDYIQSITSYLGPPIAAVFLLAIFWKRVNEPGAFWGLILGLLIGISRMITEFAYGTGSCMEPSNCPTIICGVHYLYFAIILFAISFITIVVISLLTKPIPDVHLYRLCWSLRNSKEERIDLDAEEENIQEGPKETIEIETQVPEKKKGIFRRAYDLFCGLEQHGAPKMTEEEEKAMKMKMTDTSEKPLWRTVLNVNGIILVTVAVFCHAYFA
Method: as §1
To determine the selectivity with respect to human SGLT1 an analogous test is set up in which the cDNA for hSGLTI (Genbank Ace. No. NM000343) instead of hSGLT2 cDNA is expressed in CHO-K1 or HEK293 cells.

| IC50 [1] [nM] | IC50 (human SGLT1) [nM] | Structure (SMILES) |
| --- | --- | --- |
| 0.9 | 153 | CCOc1ccc(Cc2cc([C@@H]3OC4(CC4)[C@@H](O)[C@H](O)[C@H]3O)ccc2C)cc1 [Example 3, (5S,6R,7R,8S)-5-[3-(4-Ethoxy-benzyl)-4-methyl-phenyl]-4-oxa-spiro[2.5]octane-6,7,8-triol] |
| 1 | 300 | CCOc1ccc(Cc2cc([C@@H]3OC4(CC4)[C@@H](O)[C@H](O)[C@H]3O)ccc2Cl)cc1 [Example 2, (5S,6R,7R,8S)-5-[4-Chloro-3-(4-ethoxy-benzyl)-phenyl]-4-oxa-spiro[2.5]octane-6,7,8-triol] |
| 23 | > 30000 | CCOc1ccc(Cc2cc([C@@H]3OC(CO)(CO)[C@@H](O)[C@H](O)[C@H]3O)ccc2Cl)cc1 [Example 10, (3S,4R,5R,6S)-6-[4-Chloro-3-(4-ethoxy-benzyl)-phenyl]-2,2-bis-hydroxymethyl-tetrahydro-pyran-3,4,5-triol] |
| 2.6 | 460 | Oc1ccc(Cc2cc([C@@H]3OC4(CC4)[C@@H](O)[C@H](O)[C@H]3O)ccc2Cl)cc1 [Example 6, (5S,6R,7R,8S)-5-[4-Chloro-3-(4-hydroxy-benzyl)-phenyl]-4-oxa-spiro[2.5]octane-6,7,8-triol] |
